Columns and labels:
[1] = tested on: CFTR, cystic fibrosis transmembrane conductance regulator; assay: CFTR rescue activity; type: cell-based; details: result given in words only; RC50 value is in Fig. 4b, which could not be read
[2] = solubility at different pH values; type: physicochemical; details: at all measured pH values
[3] = in vitro intrinsic clearance; type: in vitro ADME; details: metabolic stability, details in SI

Row | Compound | activity (half-maximal rescue concentration, RC50) [1] | solubility compared to the parent benzene-containing drug [2] | in vitro intrinsic clearance (CLint) [3] | in vitro intrinsic clearance (CLint) ([3]; listed as Cuba-Lumacaftor)
1 | Cc1ccc(NC(=O)C2(c3ccc4c(c3)OC(F)(F)O4)CC2)nc1C12C3C4C5C3C1C5(C(=O)O)C42 (stereo not drawn) [compound 56, Cuba-Lumacaftor] | high activity | improved solubility | < 7 μL/min/10^6 cells | 6.98 μL/min/10^6 cells
2 | Cc1ccc(NC(=O)C2(c3ccc4c(c3)OC(F)(F)O4)CC2)nc1-c1cccc(C(=O)O)c1 [compound 57, reference compound] |  |  | 11.96 μL/min/10^6 cells | 
3 | CCN(CC)CCNC(=O)C12C3C4C1C1C2C3C41NC(C)=O (stereo not drawn) [compound 58, Cuba-Acecainide] |  |  | < 7 μL/min/10^6 cells | 

Reference: publication PMC10680098 (Nature, 2023)
